Source: PMC9944867, “Mechanistic in vitro studies indicate that the clinical drug–drug interactions between protease inhibitors and rosuvastatin are driven by inhibition of intestinal BCRP and hepatic OATP1B1 with minimal contribution from OATP1B3, NTCP and OAT3” (Pharmacology Research & Perspectives, 2023)

What was measured:
OATP1B1 [1] = molecular target: T1, OATP1B1 (Homo sapiens, UniProt Q9Y6L6); assay: OATP1B1 inhibition in transporter-expressing HEK293 cells, [3H]-estradiol 17β-D-glucuronide uptake (IC50 determination); details: human, HEK293 cells expressing OATP1B1 (with vector control cells), pH 7.4, probe [3H]-estradiol 17β-D-glucuronide (0.02 μM), IC50, determined values from different occasions (OATP1B1), OATP1B1-mediated transport of [3H]-estradiol 17β-D-glucuronide (0.02 μM), HEK293; single occasion
T1 sequence (Q9Y6L6 1-691): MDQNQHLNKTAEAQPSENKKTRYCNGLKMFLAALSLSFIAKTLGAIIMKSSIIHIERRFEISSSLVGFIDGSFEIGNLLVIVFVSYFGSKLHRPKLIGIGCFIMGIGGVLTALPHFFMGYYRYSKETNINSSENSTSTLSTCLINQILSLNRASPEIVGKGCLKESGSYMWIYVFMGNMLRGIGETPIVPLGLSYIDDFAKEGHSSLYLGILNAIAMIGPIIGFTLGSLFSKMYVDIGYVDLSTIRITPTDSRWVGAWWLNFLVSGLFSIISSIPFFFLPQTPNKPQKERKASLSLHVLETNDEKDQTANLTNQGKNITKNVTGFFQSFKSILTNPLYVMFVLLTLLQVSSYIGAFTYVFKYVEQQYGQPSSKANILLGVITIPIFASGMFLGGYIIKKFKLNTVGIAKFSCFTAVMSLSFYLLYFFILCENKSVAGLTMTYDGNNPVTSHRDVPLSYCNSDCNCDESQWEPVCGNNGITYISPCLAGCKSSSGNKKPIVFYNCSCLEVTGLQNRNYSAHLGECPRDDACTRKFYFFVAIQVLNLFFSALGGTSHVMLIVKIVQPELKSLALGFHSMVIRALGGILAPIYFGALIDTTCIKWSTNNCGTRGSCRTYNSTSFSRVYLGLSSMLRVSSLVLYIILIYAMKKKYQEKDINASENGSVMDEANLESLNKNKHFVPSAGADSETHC
Experimental: OATP1B1, OATP1B3, NTCP and vector control cell lines were cultured and subsequent transporter assays conducted as described above using the same transporter‐specific probe substrates and incubation times. For OATP1B1, the probe substrate was [^3H]‐estradiol 17β‐D‐glucuronide (0.02 μM) incubated for 2 min, with rifamycin SV (100 μM) as positive control inhibitor. For IC50 determinations, the only difference to the method performed above was that the 15‐min pre‐incubation step contained a range of six concentrations of protease inhibitor drug, and subsequent incubations were conducted with the same six concentration levels of drug rather than with a single concentration.

[2] = Pharmacokinetic parameters of protease inhibitors in clinical interaction studies with rosuvastatin; details: calculated, clinical dose of Table 5
OATP1B1 [3] = details: probe substrate atorvastatin; ref Karlgren et al.[31]; cited from earlier work
BCRP = molecular target: T2, BCRP (Homo sapiens, UniProt Q9UNQ0); details: probe substrate pheophorbide A; ref Weiss et al.[15]; cited from earlier work
T2 sequence (Q9UNQ0 1-655): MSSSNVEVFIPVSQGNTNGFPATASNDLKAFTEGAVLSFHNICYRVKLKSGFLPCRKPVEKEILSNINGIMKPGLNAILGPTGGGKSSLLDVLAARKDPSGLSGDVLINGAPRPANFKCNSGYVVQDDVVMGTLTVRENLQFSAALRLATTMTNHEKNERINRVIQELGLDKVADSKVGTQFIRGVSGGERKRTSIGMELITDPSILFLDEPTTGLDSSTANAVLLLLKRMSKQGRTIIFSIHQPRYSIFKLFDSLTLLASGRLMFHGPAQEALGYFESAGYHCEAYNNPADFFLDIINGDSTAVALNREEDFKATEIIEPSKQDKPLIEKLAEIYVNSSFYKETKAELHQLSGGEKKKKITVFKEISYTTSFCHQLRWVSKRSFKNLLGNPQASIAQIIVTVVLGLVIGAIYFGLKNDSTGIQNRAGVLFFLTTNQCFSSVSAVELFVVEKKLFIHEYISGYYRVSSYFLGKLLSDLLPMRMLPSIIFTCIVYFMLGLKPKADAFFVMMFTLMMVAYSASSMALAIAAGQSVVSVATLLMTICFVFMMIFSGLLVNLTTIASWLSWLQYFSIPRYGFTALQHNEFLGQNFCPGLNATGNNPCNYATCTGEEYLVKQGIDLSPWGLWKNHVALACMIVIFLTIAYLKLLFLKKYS

human OATP1B3 (SLCO1B3) = molecular target: T3, human OATP1B3 (SLCO1B3) (Homo sapiens, UniProt Q9NPD5); details: ≥10x [Iin max u]: atazanavir 50 μM, darunavir 15 μM, lopinavir 5 μM, ritonavir 0.3 μM; [3H]-estradiol 17β-D-glucuronide 0.02 μM
T3 sequence (Q9NPD5 1-702): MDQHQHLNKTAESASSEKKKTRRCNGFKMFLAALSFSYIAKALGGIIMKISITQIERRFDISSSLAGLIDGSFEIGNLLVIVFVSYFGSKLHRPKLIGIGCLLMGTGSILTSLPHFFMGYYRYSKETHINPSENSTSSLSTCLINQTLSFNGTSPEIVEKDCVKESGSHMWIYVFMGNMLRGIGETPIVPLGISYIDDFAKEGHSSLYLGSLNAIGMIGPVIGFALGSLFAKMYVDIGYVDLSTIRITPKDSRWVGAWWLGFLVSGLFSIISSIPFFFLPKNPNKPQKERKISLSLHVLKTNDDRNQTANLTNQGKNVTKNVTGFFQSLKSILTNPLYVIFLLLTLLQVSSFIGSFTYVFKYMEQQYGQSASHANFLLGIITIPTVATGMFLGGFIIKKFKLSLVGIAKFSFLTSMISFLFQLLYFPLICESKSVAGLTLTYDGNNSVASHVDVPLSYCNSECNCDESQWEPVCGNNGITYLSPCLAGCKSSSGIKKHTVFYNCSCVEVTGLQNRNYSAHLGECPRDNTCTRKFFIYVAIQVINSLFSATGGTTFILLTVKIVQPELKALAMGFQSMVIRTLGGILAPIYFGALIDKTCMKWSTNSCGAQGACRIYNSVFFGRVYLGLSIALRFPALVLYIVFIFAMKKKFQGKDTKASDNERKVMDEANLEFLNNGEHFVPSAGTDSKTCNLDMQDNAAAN

For `COC(=O)N[C@H](C(=O)N[C@@H](Cc1ccccc1)[C@@H](O)CN(Cc1ccc(-c2ccccn2)cc1)NC(=O)[C@@H](NC(=O)OC)C(C)(C)C)C(C)(C)C` [atazanavir], the IC50 at 2 min (OATP1B1 [1]) was 928 nM, the “[Ig] maximal enterocyte concentration” value ([2]; (FaFg × ka × dose)/Qent) was 142 µM and the “[Iin max u] unbound maximum hepatic inlet concentration” value [2] was 4.90 µM. For the same compound, the “[Iin max] maximum hepatic inlet concentration” value [2] was 35.0 µM, the “Published IC50/Ki (OATP1B1)” value (OATP1B1 [3]) was 0.91 (atorvastatin) μM and the “Published IC50/Ki (BCRP)” value (BCRP) was 69.1 (pheophorbide A) μM. The “Inhibition of OATP1B3-mediated probe substrate transport, single concentration screen” value (human OATP1B3 (SLCO1B3)) was “produced inhibition”.
